Experiment [1] concerns Bacteroides sp. The experiment in a line: Antibacterial activity against Bacteroides sp. The experiment is classed as functional.
The subject of experiment [2] is Enterobacteriaceae. The experiment can be described thus: Inhibition of OXA in Enterobacteriaceae assessed as potentiation of piperacillin-induced antibacterial activity by measuring piperacillin MIC at 2 ug/ml by agar dilution method.
Experiment [3] deals with Enterobacteriaceae. The experiment can be described thus: Inhibition of OXA in Enterobacteriaceae assessed as potentiation of cefepime-induced antibacterial activity by measuring cefepime MIC at 2 ug/ml by agar dilution method.
Experiment [4] has as its system Enterobacteriaceae. The experiment can be described thus: Inhibition of MBL in Enterobacteriaceae assessed as potentiation of aztreonam-induced antibacterial activity by measuring aztreonam MIC at 2 ug/ml by agar dilution method (reference value: 4.68 ug/ml). On the technique in general: In agar dilution the substance is mixed into plates at graded concentrations.

The test system of experiment [5] is Enterobacteriaceae. The experiment can be described thus: Inhibition of OXA in Enterobacteriaceae assessed as potentiation of aztreonam-induced antibacterial activity by measuring aztreonam MIC at 2 ug/ml by agar dilution method.
Experiment [6] has as its system Enterobacteriaceae. The experiment can be described thus: Inhibition of KPC in Enterobacteriaceae assessed as potentiation of aztreonam-induced antibacterial activity by measuring aztreonam MIC at 2 ug/ml by agar dilution method.
A short description of experiment [7]: Inhibition of Enterobacteriaceae PBP2 by Bocillin FL-based fluorescence assay.
The subject of experiment [8] is Enterobacteriaceae. The experiment can be described thus: Inhibition of KPC in Enterobacteriaceae assessed as potentiation of piperacillin-induced antibacterial activity by measuring piperacillin MIC at 2 ug/ml by agar dilution method.
Experiment [9] deals with Enterobacteriaceae. The experiment in a line: Inhibition of ESBL in Enterobacteriaceae assessed as potentiation of piperacillin-induced antibacterial activity by measuring piperacillin MIC at 2 ug/ml by agar dilution method.
For experiment [10], the system named is Enterobacteriaceae. The experiment can be described thus: Inhibition of ESBL in Enterobacteriaceae assessed as potentiation of cefepime-induced antibacterial activity by measuring cefepime MIC at 2 ug/ml by agar dilution method.
For experiment [11], the system named is Enterobacteriaceae. The experiment in a line: Inhibition of KPC in Enterobacteriaceae assessed as potentiation of meropenem-induced antibacterial activity by measuring meropenem MIC at 2 ug/ml by agar dilution method (reference value: 8.43 ug/ml).
Experiment [12] deals with Enterobacteriaceae. The experiment can be described thus: Inhibition of ESBL in Enterobacteriaceae assessed as potentiation of aztreonam-induced antibacterial activity by measuring aztreonam MIC at 2 ug/ml by agar dilution method.
Experiment [13] concerns Enterobacteriaceae. The experiment in a line: Inhibition of KPC in Enterobacteriaceae assessed as potentiation of cefepime-induced antibacterial activity by measuring cefepime MIC at 2 ug/ml by agar dilution method.

Structures are written as SMILES. ≈ marks a conversion by molar mass, not a printed value.

A word on the MIC90: it is an inhibitory concentration at the 90% level, which refers to growth in some studies and to a panel of isolates in others. For `C[C@@H](O)[C@H]1C(=O)N2C(C(=O)O)=C(SCCNC=N)C[C@H]12` [IMIPENEM ANHYDROUS], the MIC90 in [1] was at most 1 µg/mL.

By IC50 is commonly meant the concentration needed to halve the response being measured. As to `NCCONC(=O)[C@@H]1CC[C@@H]2CN1C(=O)N2OS(=O)(=O)O` [NACUBACTAM], the MIC is under 1 µg/mL in [2]; under 1 µg/mL in experiment [3]; 0.072 µg/mL in experiment [4]; under 1 µg/mL in experiment [5]; under 1 µg/mL in experiment [6]; under 1 µg/mL in experiment [8]. The MIC in experiment [9], in [10], in experiment [11], in [12] and in experiment [13] was under 1 µg/mL each time. For the same compound, the IC50 in experiment [7] came to 0.12 µg/mL (≈ 0.37 µM).
